Data set [1] concerns GLUT4. Description: Western blotting, GLUT4 expression in HepG2 cells. In kind it is cell-based, human. Particulars: compared with the model group. Here is the method: The tissue proteins were extracted with cold total protein extraction buffer (TPEB) [98% RIPA buffer (Solarbio, Beijing, China), 1% phosphatase inhibitor mix (Sangon Biotech, Shanghai, China), and 1% protease inhibitor mix (Cell Signaling Technology, Danvers, MA, USA)], and protein concentration was determined by the bicinchoninic acid assay (BCA) method. A total of 20 μg of protein samples were separated by SDS-PAGE and transferred to a polyvinylidene difluoride (PVDF) membrane. The membrane was washed with PBST for 5 min, then incubated with 5% skim milk at room temperature for 1 h. Subsequently, the membrane was cleaned with PBST five times for 5 min and incubated overnight at 4 °C with the primary antibodies [ACC (Zenbio #381131; 1:750 dilution), AMPK (Zenbio #380431; 1:500 dilution), p-AMPK (Zenbio #340763; 1:750 dilution), CPT-1 (proteintech #15184-1-AP 1:3000 dilution), and GLUT4 (Zenbio #347063; 1:1000 dilution)]. Finally, the membrane was incubated with the secondary antibody (Abmart #T40104, 1:3000 dilution) at room temperature for 1 h. Chemiluminescent visualization of the protein bands was achieved using an ECL system (Millipore, Burlington, MA, USA) and documented with Image Lab software for PC Version 6.1 (Bio-Rad, South Granville, NSW, Australia). Densitometric analysis of the resulting bands was conducted using ImageJ 2 software.

Data set [2] relates to α-glucosidase. Description: Inhibition kinetics assay (Lineweaver–Burk). In kind it is biochemical. To be noted: for Inhibition type: Lineweaver–Burk plots; for Ki: inhibitory constant on α-glucosidase. The protocol: The inhibition assay of α-glucosidase was adapted from MORTEZA, with some modification. A total of 50 μL of α-glucosidase solution (1 U/mL) was added to 96-well plates, and 50 μL of sample solution with different concentrations (sanggenone D: 0, 20, 100, 200 μg/mL; kuwanon G: 0, 10, 20, 40 μg/mL) was incubated at 37 °C for 10 min. Subsequently, different concentrations of pNPG solution were added and incubated at 37 °C for 20 min. Finally, sodium carbonate solution (50 μL, […]) was added to terminate the reaction. Colorimetry was performed at 405 nm using a spectrophotometer to determine the change in absorbance of the enzymatic reaction system. The reversible inhibitory effect types of sanggenone D and kuwanon G on the enzyme were analyzed by the Lineweaver–Burk equation. The relevant parameters were calculated using Formulas (2)–(4).
In the formula, V represents the reaction rate, and Vm represents the maximum reaction rate. [I] is the concentration of the compound sample, and [S] is the substrate concentration. Km represents the Michaelis constant, and KI and KIS represent the inhibitory constants of the compound sample on α-glucosidase and the α-glucosidase–substrate complex, respectively.

The subject of data set [3] is α-glucosidase. The experiment in a line: Fluorescence quenching spectroscopy (Stern–Volmer). Type of data set: binding. The protocol: A total of 100 μL of 1 U/mL α-glucosidase extract was mixed with […] of different concentrations (sanggenone D: 0, 1, 5, 10, 20, 50, 60 μg/mL; kuwanon G: 0, 1, 5, 10, 20, 40, 60 μg/mL) and incubated at three temperatures of 298 K, 304 K, and 310 K for 5 min. Then, the mixture were scanned with fluorescence spectroscopy (SpectraMax i3x, Molecular Devices, LLC., San Jose, CA, USA). The excitation wavelength was set at 280 nm, the emission wavelength was 300–500 nm, and the widths of both excitation and emission slits were 5 nm. The fluorescence quenching parameters were calculated according to the following equations.
Stern–Volmer dynamic collision quenching equation:(5) F0/F=1+KSVQ=1+Kqτ0Q (6) lgF0−F/F=lgKa+nlg[Q]
F0 and F represent the fluorescence intensity peaks of α-glucosidase without and with the compound, respectively; [Q] is the sample concentration; and τ0 is the protein’s average lifetime (10^−8 s).

For data set [4], the system named is HepG2 cells. Description: CCK-8 toxicity test of HepG2 cells. Type of data set: cell-based, human. To be noted: 24 h. Here is the method: DMEM complete medium was configured with 88% DMEM high glucose medium, 10% fetal bovine serum, 1% double antibodies, and 1% non-essential amino acids. HepG2 cells were seeded in the complete medium and incubated at 37 °C with 5% CO2. When the cell confluence grew to 80–90%, the passage was carried out at a ratio of 1:3. According to the method of Cao et al., a hyperglycemic model was established through insulin induction. HepG2 cells in the logarithmic growth stage were inoculated with 4 × 10^4 cells per well in a 96-well plate and cultured at 37 °C and 5% carbon dioxide for 24 h. After the cell coverage reached 80%, 100 µL of sanggenone D and kuwanon G with different concentrations were added for 24 h. Then, 100 µL CCK-8/complete culture solution (1:9) was added to each well, and the absorbance at 450 nm was measured by an enzymoleter after 1 h of culture. The toxicity test was conducted in triplicate.(8) Cell survival rate (%)=Asample/Acontrol×100%
Background: Formazan colour is commonly taken as a measure of viable cells.

Data set [5] has as its target α-glucosidase. The experiment in a line: α-glucosidase inhibitory activity (p-NPG, absorbance at 405 nm). Type of data set: biochemical. To be noted: 1 U/mL α-glucosidase, pH 6.8, 37 °C, p-NPG substrate; read-out: IC50 (semi-inhibitory concentration). Here is the method: Subsequently, 50 μL of 2 mmol/L p-NPG was added, and the mixture was incubated at 37 °C for 20 min. Finally, 50 μL of 1 mol/L Na2CO3 was added to an ice bath for 5 min to terminate the reaction. The absorbance was measured at 405 nm, and the α-glucosidase inhibitory activity was calculated according to Formula (1). All experiments were performed in triplicate.(1) Inhibition rate of enzyme activity/%=(1−Aa−Ab/Ac−Ad)×100%
Aa is the absorbance of the sample group, Ab is the absorbance of the sample background group (equal volume of buffer instead of enzyme solution), Ac is the absorbance of the control group (equal volume of buffer instead of the sample solution), and Ad is the absorbance of the control background group (equal volume of buffer instead of the sample and enzyme solution).

Data set [6] concerns p-AMPK. The experiment in a line: Western blotting, p-AMPK in HepG2 cells. To be noted: compared with the model group. Type of data set: cell-based, human.
The test system of data set [7] is HepG2 cells. The experiment in a line: Cellular glucose, TC and TG content in high-glucose model HepG2 cells. To be noted: 20, 80 μg/mL, 24 h, compared with the model group. Type of data set: cell-based, human. The protocol: DMEM complete medium was configured with 88% DMEM high glucose medium, 10% fetal bovine serum, 1% double antibodies, and 1% non-essential amino acids. HepG2 cells were seeded in the complete medium and incubated at 37 °C with 5% CO2. When the cell confluence grew to 80–90%, the passage was carried out at a ratio of 1:3. According to the method of Cao et al., a hyperglycemic model was established through insulin induction.
The sample concentration (sanggenone D: 20, 80 μg/mL; kuwanon G: 20, 80 μg/mL) used in this experiment was determined by a CCK8 experiment. HepG2 cells were inoculated with 2 × 10^5 in a 12-well plate and cultured for 24 h. After being attached to the well, the samples containing different concentrations were replaced and the cells were treated for 24 h. The relevant indexes were determined by the kit method according to the instructions of the manufacturer. Each measurement was performed in triplicate.

Data set [8] relates to CPT-1. The experiment in a line: Western blotting, CPT-1 expression in HepG2 cells. In kind it is cell-based, human. Background: In western blotting, separated proteins are transferred to a membrane and probed.
Data set [9] deals with α-glucosidase. Particulars: cited from earlier work.

Each structure is given as a SMILES string. Entries after “also recorded” stand apart in the source; their conditions may differ.

As usually defined, the Ki is a dissociation constant, usually derived from enzyme kinetics or from competition with a known ligand. A higher Ki goes with weaker binding. On to `CC(C)=CCc1c(-c2ccc(O)cc2O)oc2c([C@H]3C=C(C)C[C@@H](c4ccc(O)cc4O)[C@@H]3C(=O)c3ccc(O)cc3O)c(O)cc(O)c2c1=O` [kuwanon G], for which the GLUT4 expression result in data set [1] is “notably up-regulated”. Further, in data set [2], the Inhibition type result is reported as “competitive inhibition type” and the Ki is 83.5 µM. In data set [3] (298 K), the KSV was 5.41 ± 0.01 ×10^4 L/mol, the Ka is reported as 36.85 ± 0.17 ×10^3 L/mol and the Kq is recorded as 5.41 ± 0.01 ×10^12 L/mol. In data set [3] (304 K), the KSV is given as 4.91 ± 0.03 ×10^4 L/mol, the Ka is on record as 194.98 ± 0.42 ×10^3 L/mol and the Kq is 4.91 ± 0.03 ×10^12 L/mol. Also, in [3] (310 K), the KSV is 3.35 ± 0.01 ×10^4 L/mol, the Ka is recorded as 1984.27 ± 0.33 ×10^3 L/mol and the Kq was 3.35 ± 0.01 ×10^12 L/mol. Moreover, the “Survival percentage of HepG2 cells” value in data set [4] (concentration less than 80 μg/mL) is “above 90%”. In addition, the IC50 in [5] amounted to 38.3 µM. Moreover, the p-AMPK entry in data set [6] is reported as “significantly promoted”. In addition, in data set [7], the “Glucose content in HepG2 cells” value is listed as “significantly reduced”, the “TC content in HepG2 cells” value was “significantly reduced” and the “TG content in HepG2 cells” value was “significantly reduced”. Besides, the “Expression of CPT-1” value in data set [8] is reported as “significantly upregulated”.
`COc1cc(/C=C/C(=O)O)ccc1O` [ferulic acid]: the “IC50 for α-glucosidase” value in data set [9] is 866 µg/mL.
As to `CC(C)=CCC12Oc3cc(O)ccc3C1(O)Oc1cc(O)c(C3C=C(C)CC(c4ccc(O)cc4O)C3C(=O)c3ccc(O)cc3O)c(O)c1C2=O` (centres unmarked) [sanggenone D], in data set [1], the GLUT4 expression result is listed as “notably up-regulated”. In data set [2], the Inhibition type result is “non-competition/anti-competition mixed inhibition; also recorded: mixed inhibition of noncompetitive and anticompetitive”; affinity was put at a Ki of 253 µM. In data set [3] (298 K), the KSV is 3.90 ± 0.04 ×10^4 L/mol, the Ka is on record as 7.28 ± 0.21 ×10^3 L/mol and the Kq is given as 3.90 ± 0.04 ×10^12 L/mol. In data set [3] (304 K), the KSV is recorded as 3.24 ± 0.02 ×10^4 L/mol, the Ka was 16.73 ± 0.14 ×10^3 L/mol and the Kq is recorded as 3.24 ±0.02 ×10^12 L/mol. For the same compound, in data set [3] (310 K), the KSV was 2.56 ± 0.02 ×10^4 L/mol, the Ka is 180.18 ± 0.30 ×10^3 L/mol and the Kq is 2.56 ±0.02 ×10^12 L/mol. Also, the “Survival percentage of HepG2 cells” value in [4] (concentration less than 100 μg/mL) is given as “above 90%”. Further, the IC50 in data set [5] is 45.1 µM. In data set [7], the “Glucose content in HepG2 cells” value is listed as “significantly reduced”, the “TC content in HepG2 cells” value is “significantly reduced” and the “TG content in HepG2 cells” value is “significantly reduced”. For the same compound, in data set [8], the “Expression of CPT-1” value was “significantly upregulated”.

(Values after publication PMC12073159, “Inhibition Mechanism of Mulberry Prenylated Flavonoids Sanggenone D/Kuwanon G Against α-Glucosidase and the Regulation of Glucose via GLUT4 Pathway” (Nutrients, 2025).)
